Where a name gives a salt, the structure may show the parent alone.
Key:
[1] = biological target: T1, Adenosine receptor A2A (Homo sapiens, UniProt P29274); assay: radioligand competition binding, [3H]CGS-21680
T1 construct: Eurofins

[2] = biological target: T2, Prostanoid receptor EP4 (Homo sapiens, UniProt P35408); assay: radioligand competition binding, [3H]Prostaglandin E2
T2 construct: Eurofins

[3] = biological target: T3, Adenosine receptor A3 (Homo sapiens, UniProt P0DMS8); assay: radioligand competition binding, [125I]AB-MECA
T3 construct: Eurofins

[4] = biological target: T4, Platelet Activating Factor Receptor (Homo sapiens, UniProt P25105); assay: radioligand competition binding, [3H]PAF
T4 construct: Eurofins
T4 sequence (P25105 whole entry): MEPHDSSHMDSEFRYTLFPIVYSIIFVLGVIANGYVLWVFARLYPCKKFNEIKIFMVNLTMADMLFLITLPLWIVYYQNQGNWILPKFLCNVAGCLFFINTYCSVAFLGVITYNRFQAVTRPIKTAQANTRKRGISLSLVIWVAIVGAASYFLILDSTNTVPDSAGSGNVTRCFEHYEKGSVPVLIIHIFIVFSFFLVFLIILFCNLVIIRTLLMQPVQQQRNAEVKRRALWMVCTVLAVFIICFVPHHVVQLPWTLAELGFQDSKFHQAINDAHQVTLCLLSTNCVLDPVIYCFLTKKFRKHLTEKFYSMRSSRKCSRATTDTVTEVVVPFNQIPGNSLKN

[5] = biological target: T5, Neuropeptide Y receptor Y2 (Homo sapiens, UniProt P49146); assay: radioligand competition binding, [125I]Peptide YY
T5 construct: Eurofins
T5 sequence (P49146 whole entry): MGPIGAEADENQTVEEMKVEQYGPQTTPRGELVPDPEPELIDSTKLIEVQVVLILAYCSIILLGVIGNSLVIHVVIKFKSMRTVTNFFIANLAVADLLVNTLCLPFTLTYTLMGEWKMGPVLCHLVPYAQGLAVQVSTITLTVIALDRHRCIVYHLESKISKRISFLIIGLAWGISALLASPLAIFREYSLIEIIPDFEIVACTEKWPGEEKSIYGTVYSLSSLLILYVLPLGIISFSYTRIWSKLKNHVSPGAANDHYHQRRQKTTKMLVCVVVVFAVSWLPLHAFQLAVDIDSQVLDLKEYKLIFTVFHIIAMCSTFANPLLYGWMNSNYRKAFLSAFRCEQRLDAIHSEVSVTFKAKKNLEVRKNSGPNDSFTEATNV

[6] = biological target: T6, Bradykinin receptor B1 (Homo sapiens, UniProt P46663); assay: radioligand competition binding, [3H](Des-Arg10, Leu9)-Kallidin
T6 construct: Eurofins
T6 sequence (P46663 whole entry): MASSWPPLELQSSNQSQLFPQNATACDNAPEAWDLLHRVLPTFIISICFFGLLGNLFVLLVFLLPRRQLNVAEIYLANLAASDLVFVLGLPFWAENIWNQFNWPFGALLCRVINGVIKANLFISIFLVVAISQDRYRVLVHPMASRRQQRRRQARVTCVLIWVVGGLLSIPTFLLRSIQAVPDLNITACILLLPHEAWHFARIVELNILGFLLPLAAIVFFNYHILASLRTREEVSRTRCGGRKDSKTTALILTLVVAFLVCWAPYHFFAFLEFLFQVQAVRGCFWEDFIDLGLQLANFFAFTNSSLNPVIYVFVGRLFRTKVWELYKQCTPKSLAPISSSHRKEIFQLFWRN

[7] = biological target: T7, M3 (muscarinic receptor) (Homo sapiens, UniProt P20309); assay: radioligand competition binding, [3H]4-DAMP
T7 construct: Eurofins
T7 sequence (P20309 whole entry): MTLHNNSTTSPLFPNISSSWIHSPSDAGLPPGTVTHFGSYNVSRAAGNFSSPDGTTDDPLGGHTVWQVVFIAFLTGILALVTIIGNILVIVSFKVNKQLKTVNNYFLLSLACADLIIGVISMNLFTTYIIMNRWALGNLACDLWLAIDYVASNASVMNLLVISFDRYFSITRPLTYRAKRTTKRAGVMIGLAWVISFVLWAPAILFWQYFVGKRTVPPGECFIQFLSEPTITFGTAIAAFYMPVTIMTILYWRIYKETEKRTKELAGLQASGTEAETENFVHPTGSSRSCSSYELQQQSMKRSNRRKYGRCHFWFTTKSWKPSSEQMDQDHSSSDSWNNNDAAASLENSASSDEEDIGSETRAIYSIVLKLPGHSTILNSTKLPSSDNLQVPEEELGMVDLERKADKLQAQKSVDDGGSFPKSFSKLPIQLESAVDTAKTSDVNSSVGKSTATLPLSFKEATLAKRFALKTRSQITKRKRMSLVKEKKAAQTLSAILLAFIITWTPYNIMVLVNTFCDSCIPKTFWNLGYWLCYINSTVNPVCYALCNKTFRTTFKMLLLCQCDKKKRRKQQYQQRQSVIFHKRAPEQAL

[8] = test system: Purinergic receptor P2X; assay: radioligand competition binding, [3H]α,β-Methylene-ATP; parameters: species or system rat
[9] = biological target: T8, Estrogen receptor ERα (Homo sapiens, UniProt P03372); assay: radioligand competition binding, [3H]Estradiol
T8 construct: Eurofins
T8 sequence (P03372 whole entry): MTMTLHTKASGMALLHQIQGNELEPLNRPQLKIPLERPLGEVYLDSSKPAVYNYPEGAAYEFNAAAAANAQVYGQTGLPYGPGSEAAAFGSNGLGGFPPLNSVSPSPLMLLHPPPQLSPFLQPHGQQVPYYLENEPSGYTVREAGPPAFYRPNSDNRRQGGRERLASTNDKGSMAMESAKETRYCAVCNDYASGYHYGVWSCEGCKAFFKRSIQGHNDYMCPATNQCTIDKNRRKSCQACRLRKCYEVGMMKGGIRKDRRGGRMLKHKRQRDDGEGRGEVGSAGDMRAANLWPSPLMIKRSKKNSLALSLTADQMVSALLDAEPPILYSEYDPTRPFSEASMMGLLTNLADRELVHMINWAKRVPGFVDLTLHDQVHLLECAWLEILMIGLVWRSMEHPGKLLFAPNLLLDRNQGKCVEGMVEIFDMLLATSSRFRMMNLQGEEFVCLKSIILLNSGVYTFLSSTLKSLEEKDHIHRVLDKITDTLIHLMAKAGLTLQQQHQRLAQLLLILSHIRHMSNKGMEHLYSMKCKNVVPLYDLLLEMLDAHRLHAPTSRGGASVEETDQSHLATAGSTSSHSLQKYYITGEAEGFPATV

[10] = biological target: T9, Tachykinin receptor NK2 (Homo sapiens, UniProt P21452); assay: radioligand competition binding, [125I]Neurokinin A
T9 construct: Eurofins (contract laboratory)

[11] = biological target: human 5-HT2CR (Homo sapiens, UniProt P28335); assay: [125I]DOI competition binding assay
Chain of human 5-HT2CR (P28335 33-458): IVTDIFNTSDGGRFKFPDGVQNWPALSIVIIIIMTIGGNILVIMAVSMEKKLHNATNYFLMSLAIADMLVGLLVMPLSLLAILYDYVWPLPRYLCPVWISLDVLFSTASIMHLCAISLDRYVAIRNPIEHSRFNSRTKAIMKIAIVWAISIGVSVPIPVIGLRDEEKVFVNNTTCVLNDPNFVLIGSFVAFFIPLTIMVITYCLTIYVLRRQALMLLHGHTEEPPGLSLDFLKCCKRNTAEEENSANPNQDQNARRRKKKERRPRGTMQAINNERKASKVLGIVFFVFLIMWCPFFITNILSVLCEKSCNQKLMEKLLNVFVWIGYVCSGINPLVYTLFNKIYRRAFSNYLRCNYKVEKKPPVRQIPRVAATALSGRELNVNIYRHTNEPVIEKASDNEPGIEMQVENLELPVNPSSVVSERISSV
Experimental: (§1) Following incubation, the samples were filtered rapidly under vacuum through glass fiber filters (GF/B, Packard) presoaked with 0.3% polyethylenimine and rinsed several times with ice cold wash buffer (50 mM Tris-HCl, pH 7.4) using a 96-sample cell harvester (Unifilter, Packard). The filters were dried and then counted for radioactivity in a scintillation counter (Topcounter, Packard) using a scintillation cocktail (Microscint-0, Packard).

[12] = biological target: T10, human 5-HT2BR (Homo sapiens, UniProt P41595); assay: [125I]DOI competition binding assay
T10 construct: host or cells: HEK293 (membrane homogenates)
T10 sequence (P41595 whole entry): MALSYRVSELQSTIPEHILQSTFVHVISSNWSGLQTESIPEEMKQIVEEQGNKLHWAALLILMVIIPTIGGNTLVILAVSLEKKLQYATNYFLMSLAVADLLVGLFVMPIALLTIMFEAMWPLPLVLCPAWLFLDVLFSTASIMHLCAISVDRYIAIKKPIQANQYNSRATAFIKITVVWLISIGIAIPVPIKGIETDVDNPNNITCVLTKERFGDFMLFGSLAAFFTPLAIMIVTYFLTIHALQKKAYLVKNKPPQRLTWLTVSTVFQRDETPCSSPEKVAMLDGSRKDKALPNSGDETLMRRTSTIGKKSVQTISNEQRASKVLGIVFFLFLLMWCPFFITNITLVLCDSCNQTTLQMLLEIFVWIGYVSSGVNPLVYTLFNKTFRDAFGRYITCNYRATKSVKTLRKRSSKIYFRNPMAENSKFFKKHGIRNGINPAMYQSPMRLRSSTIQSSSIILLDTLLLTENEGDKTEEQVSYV
Experimental: as §1

[13] = biological target: Ca2+ Channel L-Type, (Dihydropyridine) (Rattus norvegicus, UniProt P22002); assay: biochemical; conditions: read-out: % inhibition of the specific radioligand binding
[14] = biological target: T11, NMDA receptor (Glycine) (Rattus norvegicus, UniProt P35439); assay: radioligand competition binding, [3H]MDL 105,519
T11 construct: Eurofins

[15] = biological target: T12, α1A (adrenergic receptor) (Homo sapiens, UniProt P35348); assay: radioligand competition binding, [3H]Prazosin
T12 construct: Eurofins

[16] = biological target: T13, M2 (muscarinic receptor) (Homo sapiens, UniProt P08172); assay: radioligand competition binding, [3H]AF-DX 384
T13 construct: Eurofins
T13 sequence (P08172 whole entry): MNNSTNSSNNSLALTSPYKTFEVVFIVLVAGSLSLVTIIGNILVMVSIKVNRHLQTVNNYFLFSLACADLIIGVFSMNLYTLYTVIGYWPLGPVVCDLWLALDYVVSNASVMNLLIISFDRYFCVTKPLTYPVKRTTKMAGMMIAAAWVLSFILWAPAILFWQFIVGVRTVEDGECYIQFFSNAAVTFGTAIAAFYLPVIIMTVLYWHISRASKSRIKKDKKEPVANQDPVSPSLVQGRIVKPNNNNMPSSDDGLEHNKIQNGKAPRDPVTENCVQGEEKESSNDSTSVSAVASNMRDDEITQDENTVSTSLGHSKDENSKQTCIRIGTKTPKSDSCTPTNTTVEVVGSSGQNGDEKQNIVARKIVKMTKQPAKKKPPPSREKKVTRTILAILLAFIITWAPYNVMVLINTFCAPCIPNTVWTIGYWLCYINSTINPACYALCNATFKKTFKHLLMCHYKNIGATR

[17] = biological target: T14, Adrenergic receptor α1B (Homo sapiens, UniProt P35368); assay: radioligand competition binding, [3H]Prazosin
T14 construct: Eurofins
T14 sequence (P35368 whole entry): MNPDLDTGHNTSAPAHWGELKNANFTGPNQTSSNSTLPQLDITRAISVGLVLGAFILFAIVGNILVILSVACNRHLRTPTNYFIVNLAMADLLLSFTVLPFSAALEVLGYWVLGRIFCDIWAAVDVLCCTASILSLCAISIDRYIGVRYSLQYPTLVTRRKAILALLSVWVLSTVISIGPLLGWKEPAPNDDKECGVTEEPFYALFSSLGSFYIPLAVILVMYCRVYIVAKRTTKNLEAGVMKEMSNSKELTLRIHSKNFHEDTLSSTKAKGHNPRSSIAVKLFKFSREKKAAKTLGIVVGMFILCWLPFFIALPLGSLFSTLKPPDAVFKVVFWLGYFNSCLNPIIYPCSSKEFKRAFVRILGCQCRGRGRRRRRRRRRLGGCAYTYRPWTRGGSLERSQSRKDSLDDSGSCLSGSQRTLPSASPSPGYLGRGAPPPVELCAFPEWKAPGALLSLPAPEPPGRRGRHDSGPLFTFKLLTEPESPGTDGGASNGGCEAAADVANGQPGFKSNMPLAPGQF

[18] = biological target: T15, α2A (adrenergic receptor) (Homo sapiens, UniProt P08913); assay: radioligand competition binding, [3H]RX 821002
T15 construct: Eurofins
T15 sequence (P08913 1-465): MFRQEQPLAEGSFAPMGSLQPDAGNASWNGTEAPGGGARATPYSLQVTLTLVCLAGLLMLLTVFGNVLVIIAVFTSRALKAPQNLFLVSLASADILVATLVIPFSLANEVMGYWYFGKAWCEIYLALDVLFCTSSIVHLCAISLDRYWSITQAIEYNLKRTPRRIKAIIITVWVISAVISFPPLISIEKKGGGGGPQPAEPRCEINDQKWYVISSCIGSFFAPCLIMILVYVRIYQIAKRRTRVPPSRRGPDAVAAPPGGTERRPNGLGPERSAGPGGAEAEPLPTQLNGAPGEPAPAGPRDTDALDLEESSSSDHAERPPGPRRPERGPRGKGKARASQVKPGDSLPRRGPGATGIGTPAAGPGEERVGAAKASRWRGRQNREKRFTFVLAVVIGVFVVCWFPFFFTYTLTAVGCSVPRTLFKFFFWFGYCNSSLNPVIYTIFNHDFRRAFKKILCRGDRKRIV

[19] = biological target: T16, 5-HT1B (Homo sapiens, UniProt P28222); assay: radioligand competition binding, [3H]GR125743
T16 construct: Eurofins
T16 sequence (P28222 whole entry): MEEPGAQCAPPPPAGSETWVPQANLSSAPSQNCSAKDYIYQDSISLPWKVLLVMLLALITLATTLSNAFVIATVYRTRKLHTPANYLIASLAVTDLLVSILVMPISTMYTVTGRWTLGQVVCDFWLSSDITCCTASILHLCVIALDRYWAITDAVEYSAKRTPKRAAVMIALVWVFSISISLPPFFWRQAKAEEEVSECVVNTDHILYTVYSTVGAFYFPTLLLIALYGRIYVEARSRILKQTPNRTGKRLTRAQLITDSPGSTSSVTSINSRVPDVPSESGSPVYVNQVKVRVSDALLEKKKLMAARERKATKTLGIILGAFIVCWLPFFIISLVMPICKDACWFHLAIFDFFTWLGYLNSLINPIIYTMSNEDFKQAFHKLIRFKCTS

[20] = biological target: T17, SERT (Homo sapiens, UniProt P31645); assay: radioligand competition binding, [3H]imipramine
T17 construct: Eurofins

[21] = test system: Phorbol ester; assay: radioligand competition binding, [3H]PDBu; parameters: species or system mouse
[22] = estimated from the % inhibition data
[23] = read-out: % inhibition of the specific radioligand binding

T1 sequence (P29274 whole entry): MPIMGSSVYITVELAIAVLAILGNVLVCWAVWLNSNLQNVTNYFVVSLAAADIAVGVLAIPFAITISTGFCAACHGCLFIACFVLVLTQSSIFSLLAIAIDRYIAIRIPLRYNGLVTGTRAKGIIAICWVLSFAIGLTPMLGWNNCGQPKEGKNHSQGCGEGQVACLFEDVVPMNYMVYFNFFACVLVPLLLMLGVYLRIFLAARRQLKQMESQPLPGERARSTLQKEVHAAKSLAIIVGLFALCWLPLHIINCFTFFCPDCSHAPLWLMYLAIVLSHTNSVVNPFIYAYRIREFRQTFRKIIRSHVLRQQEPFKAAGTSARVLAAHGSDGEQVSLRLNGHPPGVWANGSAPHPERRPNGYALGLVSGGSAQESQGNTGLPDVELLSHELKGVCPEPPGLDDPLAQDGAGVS

## COc1cc(C(F)(F)F)c(OC)cc1[C@@H]1CCCNC1 [(S)-11, 3-(2,5-Dimethoxy-4-(trifluoromethyl)phenyl)piperidine Hydrochloride]
[1]; [22]
  IC50: > 10 µM
[1]; [23]
  inhibition at 10 µM: -19%
[2]; [22]
  IC50: > 10 µM
[2]; [23]
  inhibition at 10 µM: 9%
[3]; [22]
  IC50: > 10 µM
[3]; [23]
  inhibition at 10 µM: -10%
[4]; [22]
  IC50: > 10 µM
[4]; [23]
  inhibition at 10 µM: -11%
[5]; [22]
  IC50: > 10 µM
[5]; [23]
  inhibition at 10 µM: 3%
[6]; [22]
  IC50: > 10 µM
[6]; [23]
  inhibition at 10 µM: 12%
[7]; [22]
  IC50: ~1 µM
[7]; [23]
  inhibition at 1 µM: 41%
  inhibition at 10 µM: 90%
[8]; (S)-11 10 μM, n=1
  % inhibition of the specific radioligand binding: -30%
[8]; [22]
  IC50: > 10 µM
[9]; [22]
  IC50: > 10 µM
[9]; [23]
  inhibition at 10 µM: -2%
[10]; [22]
  IC50: > 10 µM
[10]; [23]
  inhibition at 10 µM: 1%
[11]; Table S3
  5-HT2CR pKi ± S.E.M.: 7.89 ± 0.10
[11]; read-out: Ki at 5-HT2CR
  Ki: 0.013 µM
[12]; Table S3
  5-HT2BR pKi ± S.E.M.: 7.88 ± 0.07
[12]; read-out: Ki at 5-HT2BR
  Ki: 0.013 µM
[13]
  inhibition at 10 µM: -6%
[14]; [22]
  IC50: > 10 µM
[14]; [23]
  inhibition at 10 µM: -20%
[15]; [22]
  IC50: > 10 µM
[15]; [23]
  inhibition at 10 µM: 32%
[16]; [22]
  IC50: ~10 µM
[16]; [23]
  inhibition at 10 µM: 40%
[17]; [22]
  IC50: > 10 µM
[17]; [23]
  inhibition at 10 µM: 33%
[18]; [22]
  IC50: > 10 µM
[18]; [23]
  inhibition at 1 µM: 1%
  inhibition at 10 µM: 34%
[19]; [22]
  IC50: 1 to 10 µM
[19]; [23]
  inhibition at 1 µM: 21%
  inhibition at 10 µM: 68%
[20]; [22]
  IC50: > 10 µM
[20]; [23]
  inhibition at 10 µM: 22%
[21]; (S)-11 10 μM, n=1
  % inhibition of the specific radioligand binding: 15%
[21]; [22]
  IC50: > 10 µM

Source: article PMC11089506 (Journal of Medicinal Chemistry, 2024)
